Where a name gives a salt, the structure may show the parent alone.
Legend:
[1] = system: Uterine Eosinophil Peroxidase (EPO); assay: Uterine Eosinophil Peroxidase (EPO) Assay / eosinophil infiltration into the uterus of ovariectomized rats; assay type: in vivo, female Sprague Dawley rats; parameters: Uterine EPO (V. max): unit not given here; conditions: for Uterine EPO (V. max): OVX rats, oral
Experimental: (§1) In the examples illustrating the methods of the present invention, a post-menopausal model was used in which effects of different treatments upon circulating lipids were determined.
(§2) Seventy-five day old female Sprague Dawley rats (weight range of 200 to 225g) were obtained from Charles River Laboratories (Portage, MI). The animals were either bilaterally ovariectomized (OVX) or exposed to a Sham surgical procedure at Charles River Laboratories, and then shipped after one week. Upon arrival, they were housed in metal hanging cages in groups of 3 or 4 per cage and had ad libitum access to food (calcium content approximately 0.5%) and water for one week. Room temperature was maintained at 22.2°±1.7° C. with a minimum relative humidity of 40%. The photoperiod in the room was 12 hours light and 12 hours dark.
(§3) Dosing Regimen Tissue Collection. After a one week acclimation period (therefore, two weeks post-OVX) daily dosing with test compound was initiated. 17α-ethynyl estradiol or the test compound were given orally, unless otherwise stated, as a suspension in 1% carboxymethylcellulose or dissolved in 20% cyclodextrin. Animals were dosed daily for 4 days. Following the dosing regimen, animals were weighed and anesthetized with a ketamine: xylazine (2:1, V:V) mixture and a blood sample was collected by cardiac puncture. The animals were then sacrificed by asphyxiation with CO2, the uterus was removed through a midline incision, and a wet uterine weight was determined.
Uterine Eosinophil Peroxidase (EPO) Assay. Uteri were kept at 4° C. until time of enzymatic analysis. The uteri were then homogenized in 50 volumes of 50 mM Tris buffer (pH-8.0) containing 0.005% Triton X-100. Upon addition of 0.01% hydrogen peroxide and 10 mM O-phenylenediamine (final concentrations) in Tris buffer, increase in absorbance was monitored for one minute at 450 nm. The presence of eosonophils in the uterus is an indication of estrogenic activity of a compound. The maximal velocity of a 15 second interval was determined over the initial, linear portion of the reaction curve.
As is expressed in the below data, estrogenicity also was assessed by evaluating the adverse response of eosinophil infiltration into the uterus.
(§4) The data presented in the Tables 1 below reflects the response of 5 to 6 rats per treatment.

[2] = system: ovariectomized rats (uterus); assay: Uterine weight in ovariectomized (OVX) rats, 4-day oral dosing; assay type: in vivo, female Sprague Dawley rats; conditions: for Uterine Weight (% increase vs. OVX): OVX rats
Experimental: as §1, §2, §3
(§5) Data presented in Table 1 below show comparative results among ovariectomized rats, rats treated with 17α-ethynyl estradiol (EE2; an orally available form of estrogen), and rats treated with certain compounds of the present invention. […] This uterine response to estrogen is well recognized in the art.
as §4

[3] = system: proximal tibiae metaphysis (bone mineral density) of ovariectomized rats; assay: Osteoporosis Test Procedure: protection against bone loss in ovariectomized rats, 35 days; assay type: in vivo; conditions: oral; for Tibia BMD pQCT (% protection): OVX rats
From the text: Seventy-five day old female Sprague Dawley rats (weight range of 200 to 225g) were obtained from Charles River Laboratories (Portage, MI). The animals were either bilaterally ovariectomized (OVX) or exposed to a Sham surgical procedure at Charles River Laboratories, and then shipped after one week. Upon arrival, they were housed in metal hanging cages in groups of 3 or 4 per cage and had ad libitum access to food (calcium content approximately 0.5%) and water for one week. Room temperature was maintained at 22.2°±1.7° C. with a minimum relative humidity of 40%. The photoperiod in the room was 12 hours light and 12 hours dark. Following the General Preparation Procedure, infra, the rats were treated daily for 35 days (6 rats per treatment group) and sacrificed by carbon dioxide asphyxiation on the 36th day. The 35 day time period was sufficient to allow maximal reduction in bone density, measured as described herein. At the time of sacrifice, the uteri were removed, dissected free of extraneous tissue, and the fluid contents were expelled before determination of wet weight in order to confirm estrogen deficiency associated with complete ovariectomy. […] The uteri were then placed in 10% neutral buffered formalin to allow for subsequent histological analysis. The right femurs were excised and digitilized x-rays generated and analyzed by an image analysis program (NIH image) at the distal metaphysis. The proximal aspect of the tibiae from these animals were also scanned by quantitative computed tomography. In accordance with the above procedures, compounds of the present invention and ethynyl estradiol (EE2) in 20% hydroxypropyl β-cyclodextrin were orally administered to test animals. Proximal tibiae metaphysis data presented in Table 2 are the results of formula I compound treatments compared to intact and ovariectomized test animals. Results are reported as percent protection against bone loss which was calculated for individual animals by the following formula: % protection=(BMDtest BMDovx)/(BMDsham -BMDovx)×100.

serum cholesterol = assay: Serum cholesterol in ovariectomized rats, 4-day oral dosing; assay type: in vivo, female Sprague Dawley rats; conditions: for Serum Cholesterol (% decrease vs. OVX): OVX rats
Experimental: as §1, §2, §3
Cholesterol Analysis. Blood samples were allowed to clot at room temperature for 2 hours, and serum was obtained following centrifugation for 10 minutes at 3000 rpm. Serum cholesterol was determined using a Boehringer Mannheim Diagnostics high performance cholesterol assay. Briefly the cholesterol was oxidized to cholest-4-en-3-one and hydrogen peroxide. The hydrogen peroxide was then reacted with phenol and 4-amino-phenazone in the presence of peroxidase to produce a p-quinone imine dye, which was read spectrophotemetrically at 500 nm. Cholesterol concentration was then calculated against a standard curve. The entire assay was automated using a Biomek Automated Workstation.
as §5, §4

[4] = system: MCF-7 breast adenocarcinoma cells; assay: MCF-7 Proliferation Assay; assay type: cell-based; conditions: Homo sapiens, MCF7; MCF-7 cells, tritiated thymidine incorporation, 48 hours
Experimental: MCF-7 Proliferation Assay MCF-7 breast adenocarcinoma cells (ATCC HTB 22) were maintained in MEM (minimal essential medium, phenol red- free, Sigma, St. Louis, Mo.) supplimented with 10% fetal bovine serum (FBS) (V/V), L-glutamine (2 mM), sodium pyruvate (1 mM), HEPES {(N-[2-hydroxyethyl]piperazine-N'-[2-ethanesulfonic acid]10 mM}, non-essential amino acids and bovine insulin (1 ug/mL) (maintenance medium). Ten days prior to assay, MCF-7 cells were switched to maintenance medium supplemented with 10% dextran coated charcoal stripped fetal bovine serum (DCC-FBS) assay medium) in place of 10% FBS to deplete internal stores of steroids. MCF-7 cells were removed from maintenance flasks using cell dissociation medium (Ca++/Mg++free HBSS (phenol red-free) supplemented with 10 mM HEPES and 2 mM EDTA). Cells were washed twice with assay medium and adjusted to 80,000 cells/mL. Approximately 100 μL (8,000 cells) were added to flat-bottom microculture wells (Costar 3596) and incubated at 37° C. in a 5% CO2 humidified incubator for 48 hours to allow for cell adherence and equilibration after transfer. Serial dilutions of drugs or DMSO as a diluent control were prepared in assay medium and 50 μL transferred to triplicate microcultures followed by 50 μL assay medium for […]. After an additional 48 hours at 37° C. in a 5% CO2 humidified incubator, microcultures were pulsed with tritiated thymidine (1 uCi/well) for 4 hours. Cultures were terminated by freezing at -70° C. for 24 hours followed by thawing and harvesting of microcultures using a Skatron Semiautomatic Cell Harvester. Samples were counted by liquid scintillation using a Wallac BetaPlace β counter. Results in Table 4 below show the IC50 for certain compounds of the present invention.

[5] = 0.1 mg/kg daily for 35 days, values marked * (two tailed Student's T Test)

| Structure (SMILES) | Uterine EPO (V. max) ([1]; 0.1 mg/kg daily for 4 days) | eosinophil infiltration into the uterus (in words) ([1]; stromal layer of ovariectomized rats) | Uterine weight (in words) ([2]; 0.1 mg/kg/day) | Uterine Weight (% increase vs. OVX) ([2]; 0.1 mg/kg daily for 4 days) | Tibia BMD pQCT (% protection) [3, 5] | prevention of bone loss (in words) ([3]; ovariectomized rats, 35 days) | Serum cholesterol (in words) (serum cholesterol; 0.1 mg/kg/day) | Serum Cholesterol (% decrease vs. OVX) (serum cholesterol; 0.1 mg/kg daily for 4 days) | Uterine EPO (V. max) ([1]; 1.0 mg/kg daily for 4 days) | Uterine EPO (V. max) ([1]; 10.0 mg/kg daily for 4 days) | IC50 [4] | Uterine Weight (% increase vs. OVX) ([2]; 1.0 mg/kg daily for 4 days) | Uterine Weight (% increase vs. OVX) ([2]; 10.0 mg/kg daily for 4 days) | Serum Cholesterol (% decrease vs. OVX) (serum cholesterol; 1.0 mg/kg daily for 4 days) | Serum Cholesterol (% decrease vs. OVX) (serum cholesterol; 10.0 mg/kg daily for 4 days) | Tibia BMD pQCT (% protection) ([3]; 0.01 mg/kg daily for 35 days) | Tibia BMD pQCT (% protection) ([3]; 1.0 mg/kg daily for 35 days) | Tibia BMD pQCT (% protection) ([3]; 3.0 mg/kg daily for 35 days, value marked * (two tailed Student's T Test)) |
| --- | --- | --- | --- | --- | --- | --- | --- | --- | --- | --- | --- | --- | --- | --- | --- | --- | --- | --- |
| C#C[C@]1(O)CC[C@H]2[C@@H]3CCc4cc(O)ccc4[C@H]3CC[C@@]21C [EE2, 17α-ethynyl estradiol, reference compound] | 116.4 | substantial, expected increase in eosinophil infiltration | uterine weight was substantially greater than the uterine weight of ovariectomized test animals | 86.3% | 60.9% | prevented this loss | caused a decrease in serum cholesterol | 81.4% |  |  |  |  |  |  |  |  |  |  |
| CCc1ccc2cc(O)ccc2c1Cc1ccc(OCCN2CCCCC2)cc1 [Example 1, [2-Ethyl-6-hydroxynaphthalen-1-yl][4-[2-(1-piperdinyl)ethoxy]phenyl]methanehydrochloride] | 6.6 |  |  | -3.3% |  |  |  | 20.3% | 12.0 | 12.0 | 10 nM | 3.0% | 60.2% | 23.1% | 38.6% |  |  |  |
| Oc1ccc2c(Cc3ccc(OCCN4CCCCC4)cc3)c([C@H]3CC[C@H](O)CC3)ccc2c1 [Example 2, hydrochloride] | 4.8 |  |  | 32.0% |  |  |  | 57.8% | 4.8 | 3.6 | 1 nM | 17.1% | 6.7% | 71.8% | 34.9% |  |  |  |
| COc1ccc2c(c1)CCC(C1CCCCC1)=C2C(=O)c1ccc(OCCN2CCCCC2)cc1 [Example 4, [3,4-Dihydro-2-cyclohexyl-6-methoxynaphthalen-1-yl][4-[2-(1-piperdinyl)ethoxy]phenyl]methanone] | 2.1 |  |  | 32.0% |  |  |  | 65.5% | 8.1 | 10.6 |  | 30.7% | 24.2% | 56.6% | 58.3% |  |  |  |
| COc1ccc2c(Cc3ccc(OCCN4CCCCC4)cc3)c(C3CCCCC3)ccc2c1 [Example 5, [2-Cyclohexyl-6-methoxynaphthalen-1-yl][4-[2-(1-piperdinyl)ethoxy]phenyl]methane] | 21.2 |  |  | 21.2% |  |  |  | 77.6% | 4.2 | 5.3 | 10 nM | 10.4% | 6.4% | 76.3% | 65.8% |  |  |  |
| Oc1ccc2c(Cc3ccc(OCCN4CCCCC4)cc3)c(C3CCCCC3)ccc2c1 [Example 6, [2-Cyclohexyl-6-hydroxynaphthalen-1-yl][4-[2-(1-piperdinyl)ethoxy]phenyl]methane hydrochloride] | 17.7 |  |  | 65.7% | 52.6% |  |  | 57.4% | 4.2 | 4.5 | 0.6 nM | 22.8% | 22.0% | 46.8% | 63.9% | 23.1% | 30.1% | 59.6% |

Source: patent US5811421A, “Naphthyl and dihydronaphthyl intermediates, compounds, compositions, and methods” (Eli Lilly and Company, priority 1996, dated 1998)
